What was measured:
Prodan-G-actin = Prodan-G-actin (Oryctolagus cuniculus, UniProt P68135); assay: Competition-binding assay with GS1 and CapG on Prodan-G-actin; design: F-actin is purified from rabbit skeletal muscle using a standard protocol; from tissue; host or cells: actin from rabbit skeletal muscle; CapG and GS1 expressed in E. coli M15; species or system rabbit
Method: FIG. 4: (A) CapG: (a), Prodan-G-actin (100 nM), (b), Prodan-G-actin-CapG; (c), same as (b) in the presence of 0.2 μM KabC; (B); GS1: (a), Prodan-G-actin 100 nM; (b), Prodan-G-actin-GS1; (c), same as (b) in the presence of 0.2 μM KabC.
Characterization of actin binding proteins: The actin-binding properties of the ABPs used in this study are evaluated from changes in the fluorescence emission spectrum of Prodan-actin and actin polymerization assays as described by Marriott et al (1988).
Trisoxazolemacrolides specifically compete with GS1 for the (+)-end binding site on actin. Gelsolin, a monomeric 80 kD cytoskeleton protein composed of six domains interacts with actin filaments in a complex, Ca^2+-dependent manner (Janmey et al, 1985; Burtnick et al, 1997). Gelsolin exerts two major effects once bound to an actin filament: first it severs the filament and second it remains tightly bound to the severed (+)-end and serves to block, or cap, further growth. […] Structural analyses of G-actin complexes with GS1 (McLaughlin et al, 1993) and KabC show these unrelated molecules bind to G-actin through common contact sites that include a patch of hydrophobic residues on the surface between sub-domains 1 and 3 and within the cleft that forms between the interface of sub-domains 1 and 3 (McLaughlin et al, 1993;). GS1 binding to Prodan-G-actin shifts the average energy of the fluorescence emission to the red and is accompanied by a decrease in the quantum yield (FIG. 4A) but not to the extent seen in the KabC-G-actin complex (FIG. 2).
Trisoxazolemacrolides specifically compete with CapG for the (+)-end binding site on actin. CapG, a Ca^2+-dependent, (+)-end actin filament capping protein, is found at high levels in macrophage cells where it regulates membrane ruffling and cell protrusions associated with phagocytosis and motility (Botelho et. al., 2000). […] The Ca^2+-dependent binding of CapG to Prodan-G-actin is accompanied by a dramatic blue-shift in the emission spectrum and an increase in quantum yield (FIG. 4B, curve b). The difference in fluorescence emission spectra between free and CapG-bound Prodan-G-actin is used to quantify the parameters for this binding reaction. The G-actin-CapG complex exists as a 1:1 complex and has a dissociation constant of 100 nM (data not shown). […] This conclusion is consistent with a comparison of high-resolution structures of G-actin with GS1 and KabC and a preliminary analysis of a 2.8 Angstrom structure of a CapG mutant (Vorobiev et al, PDB database, 2002). […] However the emission properties of the CapG-Prodan-G-actin complex are unaffected by the binding of LatA, DNAse and thymosin β4 (Tβ4), which is consistent with some structural data showing that these sequestering molecules bind closer to the ATP pocket and DNAse binding loop (Kabsch et al, 1990).

Prodan-labeled G-actin = molecular target: T1, Prodan-labeled G-actin (Oryctolagus cuniculus, UniProt P68135); assay: Prodan-G-actin titration: binding stoichiometry and dissociation constant; design: species or system rabbit
T1 construct: F-actin is purified from rabbit skeletal muscle using a standard protocol; Prodan (Acrylodan) fluorophore, chemical label on the thiol of Cys374; from tissue; host or cells: rabbit skeletal muscle
Method: FIG. 2: (A), Stoichiometric binding of Prodan-labeled G-actin (1 μM) in G-buffer with KabC at final concentrations of in μm, a: 0.0; b: 0.1; c: 0.2; d: 0.3; e: 0.4; f: 0.5; g: 0.6; h: 0.7; i: 0.8; j: 0.9; k: 1.0; l: 1.1; m: 1.2; n: 1.5 (B), Plot of the integrated intensity in (A) against [KabC] yields a binding stoichiometry of 1:1.
Prodan-actin: Actin is labeled with the thiol probe, Acrylodan (Molecular Probes, Eugene, Oreg.) using a standard protocol (Marriott et al, 1988). Rabbit muscle G-actin is labeled with the thiol reactive, environmentally sensitive probe, Acrylodan, according to the inventor's earlier publication (Marriott et al, 1988). […]
Determination of the binding stoichiometry and dissociation constants for G-actin complexes with ABPs and macrolide drugs: The change in the quantum yield and/or emission energy of Prodan-actin is used to quantify the interaction of CapG and macrolides with G-actin. The stoichiometry of the CapG-G-actin and macrolide-G-actin complex is determined by titrating Prodan-G-actin at 1 μM with increasing amounts of CapG or the macrolide from 0.1^−10 μM. […] The equilibrium binding constant is determined by titrating a constant amount of Prodan labeled G-actin at 0.05˜0.1 μM in G- or F-buffer with incrementally increasing amounts of the macrolide or CapG over a range of 10 nM to 10 μM. […]

Kabiramide C [KabC]
displacement of CapG from Prodan-G-actin (Prodan-G-actin): displace CapG from Prodan-G-actin in a Ca^2+-independent manner | stability of final G-actin-KabC complex (Prodan-G-actin; dilution and competition-binding studies): extremely stable and does not dissociate at a concentration below the equilibrium constant | displacement of GS1 from Prodan-G-actin (Prodan-G-actin; presence of EGTA): displaces GS1 | decrease of quantum yield of Prodan-G-actin on binding (Prodan-labeled G-actin): ~3 fold
